Reference: ChEMBL document CHEMBL1154541, “Synthesis of H-bonding probes of alpha7 nAChR agonist selectivity” (Bioorg Med Chem Lett, 2009)
Activity calls are given as the source filed them. The rule behind the calls is not given here.

Tests used:
Type in all cases: functional, cell-based
Conditions in all cases: Oocyte
[1] = target: Neuronal acetylcholine receptor subunit alpha-7 (Homo sapiens) (UniProt P36544); assay: Agonist activity to alpha7 nAChR expressed in Xenopus oocytes assessed as response current at 100 uM by two-electrode voltage clamp relative to acetylcholine
[2] = target: Neuronal acetylcholine receptor; alpha3/beta4 (Homo sapiens) (UniProt P30926+P32297); assay: Agonist activity to alpha3beta4 nAChR expressed in Xenopus oocytes assessed as response current at 100 uM by two-electrode voltage clamp relative to acetylcholine
[3] = target: Neuronal acetylcholine receptor subunit alpha-7 (Homo sapiens) (UniProt P36544); assay: Agonist activity to alpha7 nAChR expressed in Xenopus oocytes assessed as response current at 1mM by two-electrode voltage clamp relative to acetylcholine
[4] = target: Neuronal acetylcholine receptor; alpha4/beta2 (Homo sapiens) (UniProt P17787+P43681); assay: Agonist activity to alpha4beta2 nAChR expressed in Xenopus oocytes assessed as response current at 100 uM by two-electrode voltage clamp relative to acetylcholine
[5] = target: Acetylcholine receptor subunit alpha (Homo sapiens) (UniProt P02708); assay: Agonist activity to alpha-1-beta-1-epsilon-delta nAChR expressed in Xenopus oocytes assessed as response current at 100 uM by two-electrode voltage clamp relative to acetylcholine
[6] = target: Neuronal acetylcholine receptor subunit alpha-7 (Homo sapiens) (UniProt P36544); assay: Agonist activity to alpha7 nAChR expressed in Xenopus oocytes assessed as response current by two-electrode voltage clamp relative to acetylcholine

Chain of Acetylcholine receptor subunit alpha (Homo sapiens) (P02708 whole entry): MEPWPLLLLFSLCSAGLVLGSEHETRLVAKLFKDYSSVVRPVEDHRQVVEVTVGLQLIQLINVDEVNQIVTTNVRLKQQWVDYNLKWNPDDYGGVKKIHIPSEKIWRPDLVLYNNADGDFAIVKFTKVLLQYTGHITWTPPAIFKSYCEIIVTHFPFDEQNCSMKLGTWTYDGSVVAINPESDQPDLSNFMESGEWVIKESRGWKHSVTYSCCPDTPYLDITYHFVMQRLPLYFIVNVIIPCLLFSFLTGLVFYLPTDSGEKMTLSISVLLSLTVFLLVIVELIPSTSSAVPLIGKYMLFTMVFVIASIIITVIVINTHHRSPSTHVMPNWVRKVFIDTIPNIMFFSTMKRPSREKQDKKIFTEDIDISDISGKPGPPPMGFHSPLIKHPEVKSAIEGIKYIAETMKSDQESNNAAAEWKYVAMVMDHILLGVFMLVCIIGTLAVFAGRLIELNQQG
Chain of Neuronal acetylcholine receptor subunit alpha-7 (Homo sapiens) (P36544 whole entry): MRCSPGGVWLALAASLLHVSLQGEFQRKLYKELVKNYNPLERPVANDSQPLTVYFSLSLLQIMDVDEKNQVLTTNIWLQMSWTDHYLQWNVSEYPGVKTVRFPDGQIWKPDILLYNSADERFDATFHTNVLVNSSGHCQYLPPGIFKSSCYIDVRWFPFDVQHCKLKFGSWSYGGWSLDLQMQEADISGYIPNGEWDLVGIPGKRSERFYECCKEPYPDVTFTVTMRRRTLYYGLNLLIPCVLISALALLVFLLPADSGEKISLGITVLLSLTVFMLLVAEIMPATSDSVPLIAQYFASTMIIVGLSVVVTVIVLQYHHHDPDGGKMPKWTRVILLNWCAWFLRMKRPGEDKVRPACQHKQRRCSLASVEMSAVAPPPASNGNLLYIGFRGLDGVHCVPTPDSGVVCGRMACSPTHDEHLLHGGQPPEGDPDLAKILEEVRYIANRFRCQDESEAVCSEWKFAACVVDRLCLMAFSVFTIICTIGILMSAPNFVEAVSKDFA

Structure (SMILES) | Activity [1] [%] | Activity [2] [%] | Activity [3] [%] | Activity [4] | Activity [5] | ED50 [6] [µM]
C(=C1/CCCN=C1c1cccnc1)/c1cc[nH]c1 | 40 | 5 | – | – | – | –
C(=C1/CCCN=C1c1cccnc1)/c1ccncc1 | – | – | < 20 | inactive | inactive | –
C(=C1/CCCN=C1c1cccnc1)/c1ccc[nH]1 | 40 | – | – | inactive | inactive | –
C(=C1/CCCN=C1c1cccnc1)/c1cccnc1 | 35 | – | – | inactive | inactive | 100
C(=C1/CCCN=C1c1cccnc1)/c1ccccn1 | – | – | < 20 | inactive | inactive | –
